Values quoted from earlier work, collected in patent publication US20190160058A1, “METHODS OF TREATMENT WITH SELECTIVE CB2 RECEPTOR AGONISTS” (Arena Pharmaceuticals, Inc., priority 2016, published 2019).

Tests used:
[1] = test system: rats following ligation of spinal nerves; conditions: cited from earlier work
[2] = test system: guinea pig vagus nerve preparations; conditions: in vitro; cited from earlier work
RPE cells = conditions: cited from earlier work
[3] = test system: human vagus nerve preparations; conditions: in vitro; cited from earlier work
EAE mouse model = conditions: in vivo; cited from earlier work
ApoE knockout mice = conditions: in vitro and in vivo; cited from earlier work

## COc1ccc(C(=O)c2c(C)n(CCN3CCOCC3)c3cc(I)ccc23)cc1 [AM630]
[1]; rat, in vivo
  effect on the AM1241 reversal of hypersensitivity: inhibited by treatment with the CB2-selective antagonist AM630

## CCCCCCC(C)(C)c1ccc([C@@H]2C[C@H](O)CC[C@H]2CCCO)c(O)c1 [CP55,940]
[2]
  capsaicin-, PGE2-, and hypertonic saline-induced depolarization: reduces capsaicin-, PGE2-, and hypertonic saline-induced depolarization
RPE cells
  protection from oxidative damage: significantly protects RPE cells from oxidative damage
[3]
  capsaicin-, PGE2-, and hypertonic saline-induced depolarization: reduces capsaicin-, PGE2-, and hypertonic saline-induced depolarization

## COc1ccc2c(c1)c(CCN1CCOCC1)c(C)n2C(=O)c1cccc(Cl)c1Cl [GW405833]
[1]; administered systemically
  hypersensitivity to mechanical stimuli: significantly reverses hypersensitivity to mechanical stimuli

## SR144528
EAE mouse model
  blockade of the WIN 55212-2 effect on leukocyte rolling and adhesion: blocked by the CB2-selective antagonist SR144528
ApoE knockout mice
  blockade of the THC effect on atherosclerosis: completely blocks this effect
